Laboratory results from patent US7842690B2, “Cyclic hydroxylamine as psychoactive compounds” (BTG International Limited, priority 2003, dated 2010).

Tested on: mouse
Assay: Black and white box test (Example 14)
Type: in vivo
Settings: 0.1 mg/kg; for Parameter 1: Latency L (initial movement from the white to the black area), Mean / Parameter 2: Time spent in White area (TW), Mean: 5-min recording; for Parameter 3: Transitions/5 min (T), Mean: transitions between the two compartments; for Parameter 4: Total Activity: Atot, Mean: white and black compartments
Protocol: The characteristic action of anxiolytic agents is to cause a redistribution of exploratory activity and time spent in the white section.
Each mouse was placed into the centre of the white, brightly lit area bacldng the opening between the B/W compartments. Animals behaviour was recorded by a remote video camera for 5 minutes. The recordings were subsequently evaluated on the TV by two operators unaware of drug treatment. The following behavioural parameters were recorded: • a) the latency of the initial movement from the white to the black area: L (sec); • b) the time spent in the white area TW (sec); the time spent in the black area is calculated by the difference: […] (sec); • c) the number of transitions between the two compartments T (No./5 min); • d) the total activity in the white and black compartments, Atot (No./5 min); • e) the total activity in the white area throughout the time spent in the white area: • AtotW/TW (No./sec); • f) the total activity in the black area throughout the time spent in the black area: AtotB/TB (No./sec); • g) the total number of exploratory rearings: Rtot (No./5 min); • h) the total number of line crossings: Ctot (No./5 min); • i) the number of exploratory rearings in the white section RW/TW (No./sec); • j) the number of line crossings in the white section CW/TW (No./sec).
Each group was composed by 8 animals.

## ON1CCOCC1c1ccccc1 (stereo not shown) [Example P1, 3-phenylmorpholin-4-ol]
  Parameter 5: Total Activity in white area: AtotW/TW, Mean: .608 No./sec
  Parameter 6: Total Activity in black area: AtotB/TB, Mean: .652 No./sec
  Parameter 7: Rtot (total number of exploratory rearings), Mean: 60.375 No./5 min
  Parameter 8: Ctot (total number of line crossings), Mean: 137.000 No./5 min
  Parameter 9: RW/TW (exploratory rearings in the white section), Mean: .155 No./sec
  Parameter 10: CW/TW (line crossings in the white section), Mean: .454 No./sec
  Parameter 1: Latency L (initial movement from the white to the black area), Mean: 20.125 s
  Parameter 2: Time spent in White area (TW), Mean: 116.750 s
  Parameter 3: Transitions/5 min (T), Mean: 19.500 No./5 min
  Parameter 4: Total Activity: Atot, Mean: 197.375 No./5 min

## ON1CCOCC1Cc1ccccc1 (stereo not shown) [Example P2, 3-benzylmorpholin-4-ol]
  Parameter 5: Total Activity in white area: AtotW/TW, Mean: .519 No./sec
  Parameter 6: Total Activity in black area: AtotB/TB, Mean: .571 No./sec
  Parameter 7: Rtot (total number of exploratory rearings), Mean: 60.250 No./5 min
  Parameter 8: Ctot (total number of line crossings), Mean: 108.375 No./5 min
  Parameter 9: RW/TW (exploratory rearings in the white section), Mean: .099 No./sec
  Parameter 10: CW/TW (line crossings in the white section), Mean: .420 No./sec
  Parameter 1: Latency L (initial movement from the white to the black area), Mean: 19.625 s
  Parameter 2: Time spent in White area (TW), Mean: 59.250 s
  Parameter 3: Transitions/5 min (T), Mean: 10.000 No./5 min
  Parameter 4: Total Activity: Atot, Mean: 168.625 No./5 min

## ON1CCCCC1c1ccccc1 (stereo not shown) [Example P5, 2-phenylpiperidin-1-ol]
  Parameter 5: Total Activity in white area: AtotW/TW, Mean: .571 No./sec
  Parameter 6: Total Activity in black area: AtotB/TB, Mean: .708 No./sec
  Parameter 7: Rtot (total number of exploratory rearings), Mean: 69.500 No./5 min
  Parameter 8: Ctot (total number of line crossings), Mean: 127.500 No./5 min
  Parameter 9: RW/TW (exploratory rearings in the white section), Mean: .123 No./sec
  Parameter 10: CW/TW (line crossings in the white section), Mean: .448 No./sec
  Parameter 1: Latency L (initial movement from the white to the black area), Mean: 20.625 s
  Parameter 2: Time spent in White area (TW), Mean: 105.125 s
  Parameter 3: Transitions/5 min (T), Mean: 14.750 No./5 min
  Parameter 4: Total Activity: Atot, Mean: 197.000 No./5 min

## ON1CCCCC1Cc1ccccc1 (stereo not shown) [Example P6, 2-benzylpiperidin-1-ol]
  Parameter 5: Total Activity in white area: AtotW/TW, Mean: .705 No./sec
  Parameter 6: Total Activity in black area: AtotB/TB, Mean: .835 No./sec
  Parameter 7: Rtot (total number of exploratory rearings), Mean: 75.625 No./5 min
  Parameter 8: Ctot (total number of line crossings), Mean: 153.750 No./5 min
  Parameter 9: RW/TW (exploratory rearings in the white section), Mean: .190 No./sec
  Parameter 10: CW/TW (line crossings in the white section), Mean: .515 No./sec
  Parameter 1: Latency L (initial movement from the white to the black area), Mean: 14.500 s
  Parameter 2: Time spent in White area (TW), Mean: 152.125 s
  Parameter 3: Transitions/5 min (T), Mean: 24.250 No./5 min
  Parameter 4: Total Activity: Atot, Mean: 229.375 No./5 min
